Test results published in patent publication US20100041679A1, “ORAL DIETING COMPOSITION COMPRISING CONJUGATED LINOLEIC ACID AND CAFFEINE” (Institut Phytoceutic, priority 2004, published 2010).

Assay: Additional study on 24 people with excess weight, formulations given orally, two sachets/day for one month, weight loss
Format: in vivo, human
Conditions: oral route
Method: An additional study was carried out on 24 people with excess weight, to whom the formulations of the following table were administered by the oral route, in an amount of two sachets/day for one month, without changing their dietary habits.

## Conjugated linoleic acid
  weight loss observed, significance in words: not significant
Dietary habits unchanged
  Weight loss observed (as % by weight): −1.8 (N.S.) % by weight
